Data taken from paper PMC7010297, “How the initiating ribosome copes with ppGpp to translate mRNAs” (PLoS Biology, 2020).
Several values for one entry are separate records, joined by “and”; a condition that tells them apart may be missing. Equal values may be shown once. Read-outs that look alike come from different tables or passages of the source.

Molecular target: T1, 30S-bound IF2 (30S IC) (Escherichia coli, UniProt P0A705)
T1 construct: 6xHis (N); made in house
Test: ppGpp (or GDP) to GTP competitive assay for 30S IC formation by MST
Format: binding
Description: MST was calculated from the respective fluorescence time dependencies (S3 Fig). […] Symbols as in (B). […] Continuous lines indicate nonlinear regression fittings with quadratic (B and E) or same-site competition (G) functions. Three measurements were performed; mean and standard deviations are plotted (S1 Data).
[…] Symbols are as indicated, 3 measurements were performed, and mean and standard deviation are plotted (S1 Data). Continuous lines show nonlinear regression fittings with a same-site inhibition model. […] (PDF) Click here for additional data file.

T1 sequence (P0A705 whole entry, looked up): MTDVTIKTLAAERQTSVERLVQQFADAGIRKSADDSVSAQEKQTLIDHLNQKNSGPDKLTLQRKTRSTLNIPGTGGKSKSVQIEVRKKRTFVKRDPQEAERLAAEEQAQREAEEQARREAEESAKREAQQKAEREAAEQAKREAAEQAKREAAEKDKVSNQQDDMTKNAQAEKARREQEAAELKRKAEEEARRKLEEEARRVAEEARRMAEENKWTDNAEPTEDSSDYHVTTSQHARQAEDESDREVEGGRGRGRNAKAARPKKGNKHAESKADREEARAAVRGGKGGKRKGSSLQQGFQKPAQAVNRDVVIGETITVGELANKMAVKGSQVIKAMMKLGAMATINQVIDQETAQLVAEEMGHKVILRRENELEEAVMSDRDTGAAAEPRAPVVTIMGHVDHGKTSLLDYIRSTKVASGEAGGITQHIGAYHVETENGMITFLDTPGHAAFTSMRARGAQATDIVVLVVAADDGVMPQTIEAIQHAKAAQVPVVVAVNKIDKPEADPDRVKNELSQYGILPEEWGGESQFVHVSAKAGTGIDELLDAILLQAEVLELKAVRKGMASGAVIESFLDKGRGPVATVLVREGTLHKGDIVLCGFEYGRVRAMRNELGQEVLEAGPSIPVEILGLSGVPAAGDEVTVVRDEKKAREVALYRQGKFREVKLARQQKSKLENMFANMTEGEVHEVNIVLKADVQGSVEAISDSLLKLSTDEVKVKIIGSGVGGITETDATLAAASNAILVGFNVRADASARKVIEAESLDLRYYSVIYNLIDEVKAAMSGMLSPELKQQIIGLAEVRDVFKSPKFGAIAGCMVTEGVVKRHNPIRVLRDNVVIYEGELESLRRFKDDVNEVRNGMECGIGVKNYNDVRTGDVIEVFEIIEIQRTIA

## Nc1nc2c(ncn2[C@@H]2O[C@H](COP(=O)(O)OP(=O)(O)O)[C@@H](OP(=O)(O)OP(=O)(O)O)[C@H]2O)c(=O)[nH]1 [ppGpp]
mInfA, Log [ppGpp] 1.49
  MST Replicates (a.u.): 1002.79 a.u. and 1003.03 a.u. and 1003.30 a.u.
mInfA, Log [ppGpp] 1.80
  MST Average: 986.30 a.u.
  MST Replicates (a.u.): 985.49 a.u. and 986.54 a.u. and 986.87 a.u.
mInfA, Log [ppGpp] 2.10
  MST Average: 973.31 a.u.
  MST Replicates (a.u.): 972.70 a.u. and 973.61 a.u. and 973.64 a.u.
mInfA, Log [ppGpp] 2.40
  MST Average: 964.30 a.u.
  MST Replicates (a.u.): 963.79 a.u.
mInfA, Log [ppGpp] 2.70
  MST Average: 958.86 a.u.
mInfA, Log [ppGpp] -0.01
  MST Average: 1048.67 a.u.
mInfA, Log [ppGpp] -0.31
  MST Average: 1053.58 a.u.
mInfA, Log [ppGpp] -0.61
  MST Average: 1049.04 a.u.
mMF1, Log [ppGpp] 0.29
  MST Average: 1016.08 a.u.
mMF1, Log [ppGpp] 0.59
  MST Average: 1007.03 a.u.
mMF1, Log [ppGpp] 0.89
  MST Average: 999.03 a.u.
mMF1, Log [ppGpp] 1.19
  MST Average: 986.05 a.u.
  MST Replicates (a.u.): 985.88 a.u. and 986.00 a.u. and 986.26 a.u.
mMF1, Log [ppGpp] 1.49
  MST Average: 972.28 a.u.
  MST Replicates (a.u.): 971.54 a.u. and 972.59 a.u. and 972.70 a.u.
mMF1, Log [ppGpp] 1.80
  MST Average: 959.11 a.u.
  MST Replicates (a.u.): 958.37 a.u. and 959.24 a.u. and 959.71 a.u.
mMF1, Log [ppGpp] 2.10
  MST Average: 947.40 a.u.
  MST Replicates (a.u.): 946.23 a.u. and 947.67 a.u. and 948.30 a.u.
mMF1, Log [ppGpp] 2.40
  MST Average: 939.79 a.u.
  MST Replicates (a.u.): 938.92 a.u.
mMF1, Log [ppGpp] 2.70
  MST Average: 942.02 a.u.
mMF1, Log [ppGpp] -0.01
  MST Average: 1022.73 a.u.
mMF1, Log [ppGpp] -0.31
  MST Average: 1023.54 a.u.
mMF1, Log [ppGpp] -0.61
  MST Average: 1029.40 a.u.
mRNA mInfA, read-out: IC50 Average
  IC50: 29 µM
mRNA mInfA, read-out: IC50 Replicates
  IC50: 28.5 µM and 29 µM and 29.5 µM
mRNA mMF1, read-out: IC50 Average
  IC50: 8.64 µM
mRNA mMF1, read-out: IC50 Replicates
  IC50: 8.44 µM and 8.71 µM and 8.75 µM
mRNA mTufA, read-out: IC50 Average
  IC50: 131 µM
mRNA mTufA, read-out: IC50 Replicates
  IC50: 130 µM and 131 µM and 132 µM
mTufA, Log [ppGpp] 0.29
  MST Average: 1135.97 a.u.
mTufA, Log [ppGpp] 0.59
  MST Average: 1126.95 a.u.
mTufA, Log [ppGpp] 0.89
  MST Average: 1118.40 a.u.
mTufA, Log [ppGpp] 1.19
  MST Average: 1113.08 a.u.
  MST Replicates (a.u.): 1112.21 a.u. and 1113.44 a.u. and 1113.60 a.u.
mTufA, Log [ppGpp] 1.49
  MST Average: 1095.20 a.u.
  MST Replicates (a.u.): 1094.85 a.u. and 1094.92 a.u. and 1095.85 a.u.
mTufA, Log [ppGpp] 1.80
  MST Average: 1070.12 a.u.
  MST Replicates (a.u.): 1069.34 a.u. and 1070.42 a.u. and 1070.61 a.u.
mTufA, Log [ppGpp] 2.10
  MST Average: 1051.04 a.u.
  MST Replicates (a.u.): 1050.31 a.u. and 1051.38 a.u. and 1051.44 a.u.
mTufA, Log [ppGpp] 2.40
  MST Average: 1030.04 a.u.
mTufA, Log [ppGpp] 2.70
  MST Average: 1004.77 a.u.
mTufA, Log [ppGpp] -0.01
  MST Average: 1139.93 a.u.
mTufA, Log [ppGpp] -0.31
  MST Average: 1146.28 a.u.
mTufA, Log [ppGpp] -0.61
  MST Average: 1160.80 a.u.
read-out: IC50 of 30S IC formation, mInfA, competition with 50 μM GTP
  IC50: 29 ± 1 µM
read-out: IC50 of 30S IC formation, mMF1, competition with 50 μM GTP
  IC50: 8.6 ± 0.2 µM
read-out: IC50 of 30S IC formation, mTufA with SRs I–III removed (+371)
  IC50: 50 ± 5 µM
read-out: IC50 of 30S IC formation, mTufA, competition with 50 μM GTP
  IC50: 132 ± 1 µM
